Reference: patent publication US8546409B2, “Methods of treatment for solid tumors” (priority 2009, dated 2013)
Values joined by “and” are separate entries in the source; they are usually repeats but may differ in a detail not shown here. Equal entries are not always repeated. “Also recorded” adds a separate entry of the source. Where two headings read alike, the source gives them in different places.

Experiments:
p110β = biological target: T1, p110β (Homo sapiens, UniProt P42338); assay: Chick embryo fibroblast (CEF) transformation assay, p110β; type: cell-based; conditions: read-out: EC-50 for inhibition of functional activity of p110β
T1 construct: expressed in transfected cells; host or cells: chick embryo fibroblasts (CEF), viral transduction
Text: Moreover, compound I has comparatively low activity on p110α in a cell-transformation system designed to measure functional activity of these kinases, but is a potent inhibitor of both p110β and p110δ in that assay. See Example 1. This chick embryo fibroblast (CEF) transformation system has been reported as a useful way to assess the functional activity of the PI3K signaling pathway. Denley, et al., “Oncogenic signaling of class I PI3K isoforms,” Oncogene, vol. 27(18), 2561-74 (2008). Transformation of CEF cells in the assay depends upon functional kinase activity. Kang, et al., Proc. Nat'l Acad. Sci. USA, vol. 103(5), 1289-94 (2006). The readout of this assay is based on the frequency of transformation of CEF cells exposed to viral vectors carrying a specific p110 isoform of interest.
Chick embryo fibroblasts (CEF) are transduced with viral stocks with versions of the human genes for the individual PI3K isoforms p110α, p110β, p110δ and p110γ. These transduced CEF lines are then plated in a growth medium where oncogenically transformed cells form foci that can then be stained and counted. […] Denley A, Kang S, Karst U and Vogt PK, “Oncogenic signaling of class 1 PI3K isoforms.” Oncogene (2008) 27: 2561-2574. FIG. 3 illustrates the readout of this assay.

PIKC3 = PIKC3 (Homo sapiens, UniProt Q8NEB9); assay: biochemical
Text: This table provides IC-50's for inhibition of kinase activity of these other lipid kinases: […]

p110δ = biological target: T2, p110δ (Homo sapiens, UniProt O00329); assay: Cell-based p110δ assay: anti-FcεR1 stimulated CD63 movement to surface of basophils
T2 construct: endogenous in cells
Description: The p110α assay used SW3T3 cells stimulated by PDGF, and p110 kinase activity was measured by Akt phosphorylation. The p110β activity was measured by lysophosphatidic acid stimulation of Akt phosphorylation in mouse embryonic fibroblasts. The activity of p110δ was measured by anti-FcεR1 antibody cross linking stimulation of CD63 movement to the surface of basophils. Finally, the activity of p110γ was measured by fMLP stimulation of CD63 antigen movement to the cell surface of basophils.

[1] = test system: Akt phosphorylation in T47D (breast cancer); assay: Phosphorylation of Akt in T47D cells (FIG. 4); type: cell-based; conditions: 10 micromolar
Text: This distinguishes compound I from other known PI3K inhibitors in development for treatment of solid tumors, which are believed to act primarily at the p110α isoform or on p110α plus other isoforms, or even on all PI3Ks plus mTOR.

A498 xenografts = assay: Renal cancer xenografts in nu/nu mice (FIG. 9); type: in vivo; conditions: 30 mg/kg BID, 20 days, female nu/nu mice
Description: Female nu/nu mice bearing A498 xenografts (human renal cancer cells) were maintained until tumor volume measured about 100 mm^3. At that point, treatment began with compound I at a rate of 30 mg/kg administered twice per day.

in vivo = conditions: rat, 60 mg/kg/day
Description: Compound I was dosed at 60, 120, or 240 mg/kg/day administered as a single dose for up to 14 days in healthy rats. […] The peak concentration of compound I (Cmax) and area under the curve (AUC) for tolerated doses were higher than those observed with effective doses of Compound I in the xenograft model tumors in mice.

[2] = test system: NCI panel cancer cell lines; assay: NCI panel of tumor cell assays, summary over cell lines; type: cell-based; conditions: for Cell line number: GI50 less than 2 micromolar
Text: Compound I has also been tested in a battery of tumor cell assays known as the NCI panel. […] Using this measure, 1.8% of cell lines were particularly sensitive to Compound B at this level, while 39% were particularly sensitive to Compound I at the same concentration. […] Loss of PTEN activity often occurs in cancers, and enhances the sensitivity of a tumor to PI3K inhibitors. […] The following Table summarizes the cell lines found to be sensitive to Compound I and the known mutations in those cell lines.

HOP-62 = assay: NCI panel growth inhibition, HOP-62; type: cell-based; conditions: Homo sapiens, Non-Small Cell Lung Cancer
Text: (§1) Compound I has also been tested in a battery of tumor cell assays known as the NCI panel.

HCT-116 = assay: NCI panel growth inhibition, HCT-116; type: cell-based; conditions: Homo sapiens, Colon Cancer
Text: as §1

KM12 = assay: NCI panel growth inhibition, KM12; type: cell-based; conditions: Homo sapiens, Colon Cancer
Text: as §1

SNB-19 = assay: NCI panel growth inhibition, SNB-19; type: cell-based; conditions: Homo sapiens, CNS Cancer
Text: as §1

M14 = assay: NCI panel growth inhibition, M14; type: cell-based; conditions: Homo sapiens, Melanoma
Text: as §1

RXF 393 = assay: NCI panel growth inhibition, RXF 393; type: cell-based; conditions: Homo sapiens, Renal
Text: as §1

ADR-RES = assay: NCI panel growth inhibition, ADR-RES; type: cell-based; conditions: Breast Cancer
Text: as §1

MDA-MB-231 = assay: NCI panel growth inhibition, MDA-MB-231; type: cell-based; conditions: Homo sapiens, Breast Cancer
Text: as §1

BT-549 = assay: NCI panel growth inhibition, BT-549; type: cell-based; conditions: Homo sapiens, Breast Cancer
Text: as §1

T-47D = assay: NCI panel growth inhibition, T-47D; type: cell-based; conditions: Homo sapiens, T47D, Breast Cancer
Text: as §1

T1 sequence (P42338 whole entry): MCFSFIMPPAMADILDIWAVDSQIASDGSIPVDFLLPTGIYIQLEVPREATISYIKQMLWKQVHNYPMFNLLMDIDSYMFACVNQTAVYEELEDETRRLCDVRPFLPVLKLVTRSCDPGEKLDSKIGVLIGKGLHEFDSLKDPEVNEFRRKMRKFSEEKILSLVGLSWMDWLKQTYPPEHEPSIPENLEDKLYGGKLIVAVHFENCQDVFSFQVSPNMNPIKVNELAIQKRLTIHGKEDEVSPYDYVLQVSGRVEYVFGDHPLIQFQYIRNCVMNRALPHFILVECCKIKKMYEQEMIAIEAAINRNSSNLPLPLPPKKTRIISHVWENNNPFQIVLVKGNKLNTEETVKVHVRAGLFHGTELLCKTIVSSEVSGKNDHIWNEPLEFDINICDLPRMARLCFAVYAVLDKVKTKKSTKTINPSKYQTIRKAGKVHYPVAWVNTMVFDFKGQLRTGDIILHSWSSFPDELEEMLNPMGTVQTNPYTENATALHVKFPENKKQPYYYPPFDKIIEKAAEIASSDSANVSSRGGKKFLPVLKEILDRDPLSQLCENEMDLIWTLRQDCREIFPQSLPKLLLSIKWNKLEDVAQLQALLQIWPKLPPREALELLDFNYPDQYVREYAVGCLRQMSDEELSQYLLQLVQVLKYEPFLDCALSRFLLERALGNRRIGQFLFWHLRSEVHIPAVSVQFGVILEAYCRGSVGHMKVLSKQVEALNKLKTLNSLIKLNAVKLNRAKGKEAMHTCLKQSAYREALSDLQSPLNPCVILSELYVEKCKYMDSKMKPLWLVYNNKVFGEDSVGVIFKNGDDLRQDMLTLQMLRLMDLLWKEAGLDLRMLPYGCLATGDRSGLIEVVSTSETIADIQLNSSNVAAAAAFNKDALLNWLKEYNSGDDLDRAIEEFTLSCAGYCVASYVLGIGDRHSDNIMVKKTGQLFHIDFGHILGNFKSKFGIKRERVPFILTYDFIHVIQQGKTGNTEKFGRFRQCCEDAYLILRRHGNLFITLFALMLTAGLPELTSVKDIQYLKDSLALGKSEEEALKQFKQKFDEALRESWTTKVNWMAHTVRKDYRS
T2 sequence (O00329 whole entry, species assumed): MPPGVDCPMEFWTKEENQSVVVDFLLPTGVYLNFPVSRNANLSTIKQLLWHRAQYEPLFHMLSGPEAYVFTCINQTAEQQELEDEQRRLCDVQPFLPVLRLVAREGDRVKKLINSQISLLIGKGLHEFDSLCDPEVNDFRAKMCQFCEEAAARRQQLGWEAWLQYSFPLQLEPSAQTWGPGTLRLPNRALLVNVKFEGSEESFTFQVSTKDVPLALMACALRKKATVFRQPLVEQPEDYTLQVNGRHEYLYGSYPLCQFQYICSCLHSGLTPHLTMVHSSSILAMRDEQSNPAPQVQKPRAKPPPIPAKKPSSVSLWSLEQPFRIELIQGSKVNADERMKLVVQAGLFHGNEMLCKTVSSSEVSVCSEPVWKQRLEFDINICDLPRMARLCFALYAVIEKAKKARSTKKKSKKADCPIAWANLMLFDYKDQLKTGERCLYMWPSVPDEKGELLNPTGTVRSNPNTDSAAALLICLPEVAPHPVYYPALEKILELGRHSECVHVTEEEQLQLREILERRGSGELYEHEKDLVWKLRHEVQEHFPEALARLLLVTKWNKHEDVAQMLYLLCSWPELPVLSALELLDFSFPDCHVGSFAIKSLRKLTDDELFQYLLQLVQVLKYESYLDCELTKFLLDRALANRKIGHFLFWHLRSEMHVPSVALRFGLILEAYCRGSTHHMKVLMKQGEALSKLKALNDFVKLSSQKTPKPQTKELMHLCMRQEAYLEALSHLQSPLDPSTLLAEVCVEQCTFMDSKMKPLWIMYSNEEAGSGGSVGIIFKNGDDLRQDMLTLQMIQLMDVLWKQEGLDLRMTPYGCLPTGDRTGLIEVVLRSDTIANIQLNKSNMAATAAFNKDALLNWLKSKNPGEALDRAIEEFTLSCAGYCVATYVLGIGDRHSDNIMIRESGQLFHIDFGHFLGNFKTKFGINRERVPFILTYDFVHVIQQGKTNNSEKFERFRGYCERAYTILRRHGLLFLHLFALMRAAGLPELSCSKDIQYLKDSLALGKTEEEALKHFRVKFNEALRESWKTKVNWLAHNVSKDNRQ
T2 sequence (P27986 whole entry partner, species assumed): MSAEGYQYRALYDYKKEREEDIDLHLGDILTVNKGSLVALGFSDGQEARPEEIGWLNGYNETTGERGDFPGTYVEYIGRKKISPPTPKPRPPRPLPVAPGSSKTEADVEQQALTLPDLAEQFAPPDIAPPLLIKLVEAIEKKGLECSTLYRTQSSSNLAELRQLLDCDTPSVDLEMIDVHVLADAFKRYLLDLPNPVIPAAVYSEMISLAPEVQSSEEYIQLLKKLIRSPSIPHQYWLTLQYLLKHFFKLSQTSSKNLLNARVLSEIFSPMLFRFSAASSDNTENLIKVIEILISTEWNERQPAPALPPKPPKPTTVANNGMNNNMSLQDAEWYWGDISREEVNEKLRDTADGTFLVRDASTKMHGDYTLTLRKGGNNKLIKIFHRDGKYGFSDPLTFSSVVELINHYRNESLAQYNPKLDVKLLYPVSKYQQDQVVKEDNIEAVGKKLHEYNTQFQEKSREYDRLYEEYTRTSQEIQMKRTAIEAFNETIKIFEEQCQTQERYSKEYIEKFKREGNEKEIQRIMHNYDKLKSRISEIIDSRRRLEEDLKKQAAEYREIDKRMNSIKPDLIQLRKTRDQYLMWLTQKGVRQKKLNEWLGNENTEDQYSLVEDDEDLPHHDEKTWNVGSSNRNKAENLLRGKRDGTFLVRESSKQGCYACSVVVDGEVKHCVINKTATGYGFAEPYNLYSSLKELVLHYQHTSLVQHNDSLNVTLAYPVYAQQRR
PIKC3, sequence (Q8NEB9 whole entry): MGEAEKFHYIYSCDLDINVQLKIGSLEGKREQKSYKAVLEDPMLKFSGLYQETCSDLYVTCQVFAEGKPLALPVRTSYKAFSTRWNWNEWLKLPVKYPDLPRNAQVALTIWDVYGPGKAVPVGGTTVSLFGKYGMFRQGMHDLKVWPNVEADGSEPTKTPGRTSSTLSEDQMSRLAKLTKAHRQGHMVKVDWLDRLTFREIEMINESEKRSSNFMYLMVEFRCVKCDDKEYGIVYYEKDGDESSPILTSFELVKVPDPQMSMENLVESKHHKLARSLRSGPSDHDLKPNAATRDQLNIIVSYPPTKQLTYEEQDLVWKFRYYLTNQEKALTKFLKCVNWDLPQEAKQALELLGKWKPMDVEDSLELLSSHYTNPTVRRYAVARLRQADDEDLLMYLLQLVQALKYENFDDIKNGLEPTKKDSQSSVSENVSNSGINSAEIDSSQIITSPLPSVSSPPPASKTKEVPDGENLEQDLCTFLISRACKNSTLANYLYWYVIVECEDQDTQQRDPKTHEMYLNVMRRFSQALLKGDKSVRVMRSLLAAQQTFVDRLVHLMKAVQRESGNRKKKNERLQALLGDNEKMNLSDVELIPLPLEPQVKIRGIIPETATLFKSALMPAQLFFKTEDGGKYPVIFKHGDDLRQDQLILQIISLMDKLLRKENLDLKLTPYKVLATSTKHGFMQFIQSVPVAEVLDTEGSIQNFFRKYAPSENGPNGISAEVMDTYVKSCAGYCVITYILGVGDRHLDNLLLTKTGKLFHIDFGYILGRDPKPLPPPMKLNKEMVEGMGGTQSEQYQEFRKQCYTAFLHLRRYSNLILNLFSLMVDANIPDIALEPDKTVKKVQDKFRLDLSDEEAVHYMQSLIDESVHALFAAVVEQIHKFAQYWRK

Question: For `C[C@H](Nc1ncnc2[nH]cnc12)c1nc2ccc(F)cc2c(=O)n1-c1ccccc1` [Compound I], which EC50 (p110β) is on record?
Answer: 150 nM and ~150 nM

Question: What about the IC50 (PIKC3) of the same compound?
Answer: 2500 nM

Question: What about the EC50 (p110δ; FB, read-out: Cell-based assay EC50 p110δ, FB) of the same compound?
Answer: 8.4 nM

Question: What about the EC50 (p110δ; WB, read-out: Cell-based assay EC50 p110δ, WB) of the same compound?
Answer: 19 nM

Question: What about the “Phosphorylation of Akt” value [1] of the same compound?
Answer: inhibits phosphorylation of Akt

Question: And the “Tumor volume of A498 xenograft” value (A498 xenografts)?
Answer: significantly inhibited growth; also recorded: tumor volume approximately doubled

Question: And the “Tumor volume of A498 xenograft” value (A498 xenografts; listed as compound I)?
Answer: significant reduction in tumor growth

Question: And the AUC (in vivo)?
Answer: 58000 ng·h/mL

Question: And the Cmax (in vivo)?
Answer: 7300 ng/mL

Question: And the “% EC50 < 2 μM” value ([2]; Breast)?
Answer: 62%

Question: What about the Cell line number ([2]; Breast) of the same compound?
Answer: 5/8

Question: What about the “% EC50 < 2 μM” value ([2]; CNS) of the same compound?
Answer: 50%

Question: And the Cell line number ([2]; CNS)?
Answer: 3/6

Question: What about the “% EC50 < 2 μM” value ([2]; Colon) of the same compound?
Answer: 14%

Question: What about the Cell line number ([2]; Colon) of the same compound?
Answer: 1/7

Question: What about the “% EC50 < 2 μM” value ([2]; Melanoma) of the same compound?
Answer: 12%

Question: What about the Cell line number ([2]; Melanoma) of the same compound?
Answer: 1/8

Question: And the “Cell lines with mutations in PTEN inhibited” value ([2]; NCI panel cell lines known to have PTEN mutations)?
Answer: 70%

Question: And the “% EC50 < 2 μM” value ([2]; NSCLC)?
Answer: 11%

Question: And the Cell line number ([2]; NSCLC)?
Answer: 1/9

Question: What about the “% EC50 < 2 μM” value ([2]; Ovarian) of the same compound?
Answer: 33%

Question: What about the Cell line number ([2]; Ovarian) of the same compound?
Answer: 2/6

Question: What about the Cell line number ([2]; Prostate) of the same compound?
Answer: 2/2

Question: And the “% EC50 < 2 μM” value ([2]; Prostrate)?
Answer: 100%

Question: And the “% EC50 < 2 μM” value ([2]; Renal)?
Answer: 75%

Question: And the Cell line number ([2]; Renal)?
Answer: 6/8

Question: What about the “Cell lines particularly sensitive (GI50 of 2 micromolar or less)” value ([2]; all NCI panel cell lines) of the same compound?
Answer: 39%

Question: And the GI50 (HOP-62)?
Answer: 14800 nM

Question: What about the GI50 (HCT-116) of the same compound?
Answer: 37900 nM

Question: And the GI50 (KM12)?
Answer: 2000 nM

Question: What about the GI50 (SNB-19) of the same compound?
Answer: 19300 nM

Question: What about the GI50 (M14) of the same compound?
Answer: 88900 nM

Question: What about the GI50 (RXF 393) of the same compound?
Answer: 1140 nM

Question: What about the GI50 (ADR-RES) of the same compound?
Answer: 58600 nM

Question: And the GI50 (MDA-MB-231)?
Answer: 100000 nM

Question: And the GI50 (BT-549)?
Answer: 538 nM

Question: And the GI50 (T-47D)?
Answer: 571 nM
